Data set [1] can be described thus: Metabolic stability in human liver microsomes (Human MST). The data set is classed as in vitro ADME. The settings on record: pH 7.6, pooled human liver microsomes, 37° C., read-out: Human MST t½. How it is done:
Assessment of Metabolic Stability in Human Liver Microsomes (Human MST) The metabolic stability of the compounds according to the invention may be investigated as follows: The metabolic degradation of the test compound is assayed at 37° C. with pooled human liver microsomes. The final incubation volume of 100 μL per time point contains TRIS buffer pH 7.6 at room temperature (0.1 M), MgCl2 (5 mM), microsomal protein (1 mg/mL) and the test compound at a final concentration of 1 μM. Following a short pre-incubation period at 37° C., the reactions are initiated by addition of beta-nicotinamide adenine dinucleotide phosphate, reduced form (NADPH, 1 mM), and terminated by transferring an aliquot into solvent after different time points. After centrifugation (10000 g, 5 min), an aliquot of the supernatant is assayed by LCMS/MS for the amount of parent compound. The half-life (t1/2) is determined by the slope of the semi-logarithmic plot of the concentration-time profile.
On the technique in general: Liver microsomes are vesicles of endoplasmic reticulum, rich in cytochrome P450 enzymes.

Data set [2] deals with T1, human GABAA α5β3γ2s receptor (Homo sapiens, UniProt P18507+P31644).
T1 sequence (P18507 1-475): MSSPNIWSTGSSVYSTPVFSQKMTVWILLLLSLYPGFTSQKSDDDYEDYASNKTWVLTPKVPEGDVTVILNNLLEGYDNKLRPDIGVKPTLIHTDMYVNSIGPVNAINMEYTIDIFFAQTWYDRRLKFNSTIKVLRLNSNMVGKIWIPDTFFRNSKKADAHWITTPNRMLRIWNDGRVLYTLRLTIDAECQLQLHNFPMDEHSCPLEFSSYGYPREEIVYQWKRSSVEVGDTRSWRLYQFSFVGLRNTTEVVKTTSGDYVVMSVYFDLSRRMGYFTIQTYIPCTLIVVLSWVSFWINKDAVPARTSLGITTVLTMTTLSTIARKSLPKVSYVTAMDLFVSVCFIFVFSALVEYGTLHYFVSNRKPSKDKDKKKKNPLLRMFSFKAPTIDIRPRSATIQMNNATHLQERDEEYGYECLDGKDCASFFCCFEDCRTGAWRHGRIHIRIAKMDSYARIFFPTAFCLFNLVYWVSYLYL
T1 sequence (P31644 1-462): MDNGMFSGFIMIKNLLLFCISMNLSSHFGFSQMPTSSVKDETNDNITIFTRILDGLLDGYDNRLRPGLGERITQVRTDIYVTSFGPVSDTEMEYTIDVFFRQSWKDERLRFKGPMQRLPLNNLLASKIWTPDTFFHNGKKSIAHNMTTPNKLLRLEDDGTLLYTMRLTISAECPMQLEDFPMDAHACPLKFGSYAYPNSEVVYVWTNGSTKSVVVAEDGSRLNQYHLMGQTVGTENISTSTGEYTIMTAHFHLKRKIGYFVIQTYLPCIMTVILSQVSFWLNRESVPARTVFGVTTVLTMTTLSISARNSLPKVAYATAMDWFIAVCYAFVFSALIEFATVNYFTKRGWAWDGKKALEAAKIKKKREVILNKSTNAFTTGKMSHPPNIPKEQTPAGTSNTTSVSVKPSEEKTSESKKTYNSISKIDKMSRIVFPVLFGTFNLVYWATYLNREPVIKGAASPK
In words: Assay A: in vitro inhibition of 3H-flumazenil binding, HEK cells expressing the human GABAA α5β3γ2s receptor. Conditions: read-out: Assay A: GABAA α 5 β 3 γ 2s Ki. As to the method:
Cell Cultures and Membrane Preparation
HEK-293 cell lines with stable expression of recombinant human GABAA α5ß3 γ2s receptors (plasmid H46/E9/B10) are seeded in T175 polystyrene flasks or roller bottles (1700 cm^2, Fisher Scientific CCI-431191), and cultured (37° C., 5% CO2) in Dulbecco's Modified Eagle Medium (DMEM) with GlutaMAX™ supplemented with 10% fetal bovine serum and one or both of the following antibiotics: hygromycin B ([…]; γ2 subunit) or G418 (0.5 mg/ml; […]).
When the cultures reach confluency, the DMEM is removed and the cells are washed (10 ml for T175 flasks; 50 ml for roller bottles) once in Dulbecco's Phosphate Buffered Saline (DPBS). Following addition of DPBS to the cultures (10 ml for T175 flasks; 100 ml for roller bottles) for approximately 5 min cells are easily detached from the surface by shaking or tapping the flask gently. The cell suspension is transferred to Falcon tubes and centrifuged at 23,500×g for 10 min at 2° C. The pellet is washed once in 15 ml Tris-citrate buffer (50 mM, pH 7.1) using an Ultra-Turrax homogenizer and centrifuged at 2° C. for 10 min at 27,000×g. The washed pellet is re-suspended in 15 ml Tris-citrate buffer and frozen at −80° C. until the day of the binding experiment.
On the day of the experiment the cell membrane preparation is thawed and centrifuged at 2° C. for 10 min at 27,000×g. The pellet is re-suspended, using an Ultra-Turrax homogenizer in Tris-citrate buffer, to 15-50 µg protein per assay and then used for binding assays.
Non-specific binding is determined using clonazepam ([…]).
All dilutions of test compounds and incubation of assay are performed in glass vials/96-vial plates. […] Compounds are dissolved in 100% DMSO (10 mM stock), diluted in 48% ethanol-water, and tested in triplicate in serial 1:3 or 1:10 dilutions. When screening large numbers of compounds only one concentration of each compound is tested in single wells. Reference compounds are not included routinely, but for each experiment performed total and nonspecific binding is compared to data obtained during validation of the assay.
Binding is either terminated by rapid filtration onto
1) Whatman GF/C glass fibre filters using a Brandel Cell harvester, followed by 5 washes with 1 ml ice-cold buffer or onto 2) UniFilter GF/C glass fibre filter plates using a Tomtec cell harvester, followed by washing with approximately 5 ml ice-cold buffer.
The amount of radioactivity on the filters is determined by conventional liquid scintillation counting using a
1) Tri-Garb™ counter (PerkinElmer Life and Analytical Sciences) for separate large filters or
2) Topcount™ counter (PerkinElmer Life and Analytical Sciences) for 96-well filter plates.
Specific binding is total binding minus non-specific binding.
The IC50 value for a test compound is determined based on the equation: […]
where B is the binding in percentage of total specific binding; C is the concentration of test compound; and n is the Hill coefficient. For screening purposes n is set to 1. The IC50 value is calculated from the concentration response curves by the non-linear regression method using the curve-fitting program GraphPad Prism.
The Ki value for a test compound can be calculated from the IC50 value using the equation by Cheng and Prusoff: […]

Take `Cc1nnn(-c2ccc(C(F)F)cn2)c1COc1ccc(-c2cnn(C)c2C)nn1` [Example 9]: the half-life at 1 μM in data set [1] is 1.68 h. The Ki – broadly, the equilibrium dissociation constant of an inhibitor or competing ligand from its target – in data set [2] was 13 nM.

(Values after US20230286946A1, “DIFLUOROMETHYL-PYRIDIN-2-YL TRIAZOLES” (Boehringer Ingelheim International GmbH, priority 2020, published 2023).)
